# Source: patent EP0309421A2, “O-alkanoyl derivatives of 3-amino-2-hydroxypropanesulfonic acid having anticonvulsivant activity and pharmaceutical compositions containing same for the therapeutical treatment of epilepsy” (SIGMA TAU Industrie Farmaceutiche Riunite S.p.A., priority 1987, dated 1989)
# Marks after values point to notes of the source that are not given here.
# Experiments:
# [1] = tested on: cardiazol-induced convulsions; experiment: Anticonvulsivant test, cardiazol-induced convulsions; format: in vivo, male albino swiss (Charles River) mice
# Protocol: (§1) Anticonvulsivant tests were carried out using cardiazol, strychnine and bicuculline at doses of 100 mg/10 ml/kg i.p., 0.73 mg/10 ml/kg s.c. and 2.38 mg/10 ml/kg s.c., respectively, chosen in such a way as to provoke death in 50% of the control animals.
# (§2) The tests were carried out in male albino swiss (Charles River) mice weighing 22-24 g. The compound under examination, dissolved in water, was i.p. administered 30 minutes before the convulsivant agent administration.
# (§3) As reference substance, 3-APS (200-400-800 mg/10 ml/kg i.p.) was used.
# [2] = tested on: strychnine-induced convulsions; experiment: Anticonvulsivant test, strychnine-induced convulsions; format: in vivo, male albino swiss (Charles River) mice
# Protocol: as §1, §2, §3
# [3] = tested on: bicuculline-induced convulsions; experiment: Anticonvulsivant test, bicuculline-induced convulsions; format: in vivo, male albino swiss (Charles River) mice
# Protocol: as §1, §2, §3
# [4] = tested on: male and female Sprague Dawley rats; experiment: Toxicity test, oral administration for 15 consecutive days; format: in vivo; conditions: 150-450-1350 mg/10 ml/kg for 15 consecutive days
# Protocol: The toxicity tests were carried out on male and female Sprague Dawley rats which were orally administered ST549 at the doses of 150-450-1350 mg/10 ml/kg for 15 consecutive days; the control animals were administered the same volume of vehicle as the test animals.
# male albino swiss mice = experiment: Tolerability test, intravenous; format: in vivo; conditions: 1.4 g/kg intravenously, in sterile saline at neutral pH
# Protocol: The tolerability test was carried out on male albino swiss mice weighing 22-24 g.
# FeCl3-induced epilepsy = experiment: Antiepileptic activity test (FeCl3-induced epilepsy model); format: in vivo, Male albino Wistar rats; conditions: 500, 250 and 125 mg/kg i.v. ninety minutes following FeCl3 injection; Mann-Whitney's "U" test, P<0.05
# Protocol: Male albino Wistar rats weighing 250-300 g were used. The animals, anaesthetized with Nembutal Na (30 mg/kg e.p.), were stereotactically injected in their left ventral hippocampus one microliter of 0.55 M FeC13 solution (AP =-3.2; L=5.0; H=5.5 Pellegrino and Cushman, 1971). Ten minutes following injection, recording electrodes were implanted: in both ventral hippocampi, two millimeters below the FeC13 injection site (bipolars), bilaterally on the frontoparietal cortex (monopolars). […] The epilepsy degree was assessed by calculating for each animal the number and duration in seconds of the seizures at 5-minute intervals during the whole recording span both in the hippocampus where the injection had been performed and in the contralateral cortex. Moreover, an "index of epileptization" was calculated as the mean product of seizure number times the duration of the seizures in each time interval. […]
# The results thus obtained show the antiepileptic activity of the compound assessed by examining the whole phenomenon as it evolves in time via the measure (carried out with the trapezoidal rule) of the area under the curve wherein the average number of seizures and their duration is plotted versus time.
# auricular electroshock = experiment: Auricular electroshock (maximal electroshock); format: in vivo, Male albino Swiss mice; conditions: 14 animals, control 6/14
# Protocol: Male albino Swiss mice weighing 22-24 g were used in this test. The electroshock conditions were the following: • shock duration: 3 seconds; frequence: 100; pulse amplitude: 0.6 milliseconds, current intensity: 40 milliamperes. • 400 and 800 mg/10 ml/kg of the compound under examination were administered via the intraperitoneal route 30 minutes before the electroshock.
# The tests results which illustrate the number of animals preserved from death provoked by maximal electroshock are shown in the following Table 3.
# [5] = Stability of the solid product versus pH (deacylation); format: physicochemical; conditions: above it deacylation of the compound takes place
# From the text: After it had been cooled to room temperature the mixtured was filtered and the filtrate added dropwise to an Erlenmeyer flask containing about 700 milliliters of ethyl ether. A white precipitate formed which was again dissolved in methanol, filtered and re-precipitated with ether. Upon drying 7.3 g of a white, hygroscopic solid product, stable at pH <6.3 were obtained; above this […] deacylation of the compound takes place. • Elementary analysis: [formula] • NMR corresponding
# [6] = Cardiazol, ST 549 i.p., equimolar to 400 mg/kg 3APS
# [7] = lower dose (equimolar to 200 mg/10 ml/kg of 3-APS)
# [8] = Strychnine, ST 549 i.p., equimolar to 400 mg/kg 3APS
# [9] = Bicuculline, ST 549 i.p., equimolar to 400 mg/kg 3APS
# [10] = Cardiazol, 3-APS 400 mg/kg i.p.
# [11] = Cardiazol, 3-APS 800 mg/kg i.p.
# [12] = doses of 200,400 and 800 mg/10 ml/kg i.p.
# [13] = Strychnine, 3-APS 400 mg/kg i.p.
# [14] = Strychnine, 3-APS 800 mg/kg i.p.
# [15] = Bicuculline, 3-APS 800 mg/kg i.p.
smiles,measurement,setting,value
"CC(=O)OC(CN)CS(=O)(=O)O (stereo not shown) [ST 549, 3-amino-2-acetyloxy propanesulfonic acid]",% Conv.,"[1]; Cardiazol, ST 549 i.p., dose equimolar to 200 mg/kg 3APS, 10 animals",100%
same,% Death rate,"[1]; Cardiazol, ST 549 i.p., equimolar to 200 mg/kg 3APS",50%
same,% Conv.,[1]; [6],90%
same,% Death rate,[1]; [6],0%
same,animals preserved from cardiazol-induced death,[1]; dose equimolar to 400 mg/10 ml/kg i.p. of 3-APS,100%
same,effect on the relevant parameters (cardiazol),[1]; [7],did not affect the relevant parameters
same,% Death rate,"[2]; Strychnine, ST 549 i.p., equimolar to 200 mg/kg 3APS",90%
same,% Conv.,"[2]; Strychnine, ST 549 i.p., equimolar to 200 mg/kg 3APS, 10 animals",100%
same,% Conv.,[2]; [8],100%
same,% Death rate,[2]; [8],90%
same,latency time of strychnine-induced death,[2]; [7],significantly increased
same,latency time of strychnine-induced first convulsion,[2]; [7],significantly increased
same,% Death rate,"[3]; Bicuculline, ST 549 i.p., equimolar to 200 mg/kg 3APS",60%
same,% Conv.,"[3]; Bicuculline, ST 549 i.p., equimolar to 200 mg/kg 3APS, 10 animals",70%
same,% Conv.,[3]; [9],60%
same,% Death rate,[3]; [9],60%
same,decrease of bicuculline-induced death rate,[3]; doses equimolar to 400 and 200 mg/10 ml/kg i.p. of 3-APS,30%
same,animals preserved from convulsions (bicuculline),"[3]; doses equimolar to 400 and 200 mg/10 ml/kg i.p. of 3-APS, printed as ""the same percentage""",30%
same,general health or behaviour of the animals,[4],did not affect
same,"Autopsy, main organs",[4]; at the end of the test,did not reveal either alterations or lesions to the main organs
same,blood and urine parameters,[4]; with respect to the controls,unchanged
same,tolerability,male albino swiss mice,well tolerated
same,"area under the curve of average number of seizures and their duration versus time, compared with controls",FeCl3-induced epilepsy,statistically significant difference
same,death rate,auricular electroshock; 400 mg/kg i.p. 30 minutes before the electroshock,3/14
same,death rate,auricular electroshock; 800 mg/kg i.p. 30 minutes before the electroshock,3/14
"NCCCS(=O)(=O)O [3-APS, 3-aminopropanesulfonic acid]",% Conv.,"[1]; Cardiazol 100 mg/10 ml/kg i.p., 3-APS 200 mg/kg i.p. 30 min before, 10 animals",100%
same,% Death rate,"[1]; Cardiazol, 3-APS 200 mg/kg i.p.",50%
same,% Conv.,[1]; [10],100%
same,% Death rate,[1]; [10],90%
same,% Conv.,[1]; [11],100%
same,% Death rate,[1]; [11],60%
same,preservation from cardiazole-induced death,[1]; [12],did not preserve animals
same,% Conv.,"[2]; Strychnine 0.73 mg/10 ml/kg s.c., 3-APS 200 mg/kg i.p. 30 min before, 10 animals",100%
same,% Death rate,"[2]; Strychnine, 3-APS 200 mg/kg i.p.",90%
same,% Conv.,[2]; [13],100%
same,% Death rate,[2]; [13],100%
same,% Conv.,[2]; [14],100%
same,% Death rate,[2]; [14],90%
same,preservation from strychnine-induced death,[2]; [12],did not preserve animals
same,latency time of bicuculline-induced death,[3]; 400 mg/10 ml/kg i.p.,significantly increased
same,latency time of the bicuculline-induced first convulsion,[3]; 800 mg/kg i.p.,significantly increased
same,% Conv.,"[3]; Bicuculline 2.38 mg/10 ml/kg s.c., 3-APS 200 mg/kg i.p. 30 min before, 10 animals",100%
same,% Death rate,"[3]; Bicuculline, 3-APS 200 mg/kg i.p.",100%
same,% Death rate,"[3]; Bicuculline, 3-APS 400 mg/kg i.p.",75%
same,% Conv.,"[3]; Bicuculline, 3-APS 400 mg/kg i.p., 8 animals per group",100* %
same,% Conv.,[3]; [15],70%
same,% Death rate,[3]; [15],40%
same,preservation from bicuculline-induced death,[3]; [12],did not preserve animals
"CCCC(=O)OC(CN)CS(=O)(=O)O.Cl (stereo not shown) [ST 477, 3-amino-2-butanoyloxypropanesulfonic acid hydrochloride]",stable at pH,[5],< 6.3
